Where two headings read alike, the source gives them in different places.

The test system of one assay is A549. The experiment in a line: Cell-based assay, anti-proliferative activity (Cell Counting Kit-8, 72 hours). The settings on record: Homo sapiens; A549 cells, 72 hours, Cell Counting Kit-8; read-out: IC50 (μM) A549. Summed up: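 Cells were seeded in 96-well plates and exposed to candidate inhibitors. Cellular growth was then determined with the colorimetric kit, and IC50 values were calculated from the growth data.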
(In general: Formazan colour is commonly taken as a measure of viable cells.)

The next assay has as its system HCT-116. The assay is described as above. The note with it: Homo sapiens, read-out: IC50 (μM) HCT-116. Summed up:
(§1)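 Growth inhibition is read by Cell Counting Kit-8 after three days of compound treatment. Test concentrations span 0, 1.5625, 3.125, 6.25, 12.5, 25, 50 and 100 micro-M, and IC50 serves as the anti-proliferative measure.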

Another assay relates to CCD-18Co. The description is as above. The note with it: Homo sapiens, read-out: IC50 (μM) CCD-18Co. Summed up: as §1
A further assay deals with HFL1. The description is as above. The note with it: Homo sapiens, read-out: IC50 (μM) HFL1. Summed up: as §1
The next assay concerns PC14. The assay is described as above. The settings on record: Homo sapiens, read-out: IC50 (μM) PC14. A digest of the protocol:
as §1

A further assay has as its target SUV39H2 (Homo sapiens (Human), UniProt Q9H5I1). The note with it: read-out: IC50 (μM) Suv 39H2 assay; enzyme assay.
Where [1] appears, read: HCT-116 cells, 72 hours, Cell Counting Kit-8.
The mark [2] stands for this setting: CCD-18Co cells, 72 hours, Cell Counting Kit-8.
[3] abbreviates: HFL1 cells, 72 hours, Cell Counting Kit-8.
Setting [4] is: PC-14, PC14 cells, 72 hours, Cell Counting Kit-8.

SUV39H2, sequence (Q9H5I1 whole entry): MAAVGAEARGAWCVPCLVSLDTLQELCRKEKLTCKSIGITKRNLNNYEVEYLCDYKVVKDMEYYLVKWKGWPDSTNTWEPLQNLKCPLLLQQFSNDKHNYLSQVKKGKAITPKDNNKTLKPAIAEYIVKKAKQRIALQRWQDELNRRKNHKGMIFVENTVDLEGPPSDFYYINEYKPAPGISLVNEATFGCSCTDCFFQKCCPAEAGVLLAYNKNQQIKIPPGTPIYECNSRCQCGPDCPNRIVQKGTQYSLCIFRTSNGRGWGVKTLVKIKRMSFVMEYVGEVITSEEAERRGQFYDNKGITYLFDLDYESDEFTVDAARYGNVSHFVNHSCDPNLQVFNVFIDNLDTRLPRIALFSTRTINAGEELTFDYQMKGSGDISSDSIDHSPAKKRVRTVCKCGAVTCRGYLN

Usually IC50 stands for the concentration that gives 50% inhibition. Take `COc1cc(OC)c(-c2cn3ccc(N[C@H]4CC[C@H](CN5CCN(Cc6ccccc6)CC5)CC4)cc3n2)cc1Cl` [Example 278, trans-N-(4-((4-benzylpiperazin-1-yl)methyl)cyclohexyl)-2-(5-chloro-2,4-dimethoxyphenyl)imidazo[1,2-a]pyridin-7-amine 2,2,2-trifluoroacetate]: the IC50 in the assay with A549 is 1.4 µM; in the assay with HCT-116 (HCT-116, 72 h) it was 0.84 µM; with CCD-18Co (CCD-18Co, 72 h), 1.2 µM; with HFL1 (HFL1, 72 h) it was 0.73 µM; in the assay with PC14 (PC-14, 72 h) it was 1.3 µM; at SUV39H2 it was 0.0707 µM.
As for `COc1cc(OC)c(-c2cn3ccc(N4CCN(c5ccnc(N)n5)CC4)cc3n2)cc1Cl` [Example 279, 4-(4-(2-(5-chloro-2,4-dimethoxyphenyl)imidazo[1,2-a]pyridin-7-yl)-piperazin-1-yl)pyrimidin-2-amine], the IC50 in the assay on A549 was found to be 0.32 µM; in the assay with HCT-116 (setting [1]), 0.32 µM; in the assay on CCD-18Co (setting [2]), 0.33 µM; in the assay on HFL1 (setting [3]), 0.33 µM; with PC14 (setting [4]), 0.38 µM; at SUV39H2 it was 0.00938 µM.
Regarding `COc1cc(OC)c(-c2cn3ccc(OC4CCN(S(=O)(=O)c5cccs5)CC4)cc3n2)cc1Cl` [Example 280, 2-(5-chloro-2,4-dimethoxyphenyl)-7-((1-(thiophen-2-ylsulfonyl)piperidin-4-yl)oxy)imidazo[1,2-a]pyridine], the IC50 was 2 µM in the assay on A549; 1.9 µM in the assay on HCT-116 (setting [1]); 1.7 µM in the assay with CCD-18Co (setting [2]); 1.6 µM with HFL1 (setting [3]); 0.8 µM in the assay with PC14 (setting [4]); 0.0711 µM at SUV39H2.
In the case of `COc1cc(OC)c(-c2cn3ccc(N4CCN(c5cccc(F)n5)CC4)cc3n2)cc1Cl` [Example 281, 2-(5-chloro-2,4-dimethoxyphenyl)-7-(4-(6-fluoropyridin-2-yl)piperazin-1-yl)imidazo[1,2-a]pyridine], the IC50 in the assay with A549 was 1.2 µM; with HCT-116 (setting [1]), 0.82 µM; with CCD-18Co (setting [2]), 0.83 µM; in the assay with HFL1 (setting [3]), 0.76 µM; in the assay with PC14 (setting [4]), 0.9 µM; on SUV39H2, 0.0988 µM.
Consider `COc1cc(OC)c(-c2cn3ccc(N4CCN(c5ccccc5)CC4)cc3n2)cc1Cl` [Example 282, 2-(5-chloro-2,4-dimethoxyphenyl)-7-(4-phenylpiperazin-1-yl)-imidazo[1,2-a]pyridine], for which the IC50 amounted to 1.5 µM in the assay on A549; 1.4 µM with HCT-116 (setting [1]); 1.5 µM in the assay with CCD-18Co (setting [2]); 1.4 µM in the assay on HFL1 (setting [3]); 0.96 µM in the assay with PC14 (setting [4]); 0.0349 µM at SUV39H2.
For the molecule `COc1cc(OC)c(-c2cn3ccc(N4CCN(c5ncccc5C#N)CC4)cc3n2)cc1Cl` [Example 283, 2-(4-(2-(5-chloro-2,4-dimethoxyphenyl)imidazo[1,2-a]pyridin-7-yl)-piperazin-1-yl)nicotinonitrile], the IC50 in the assay with A549 came out at 0.66 µM; with HCT-116 (setting [1]) it was 0.42 µM; in the assay on CCD-18Co (setting [2]) it was 0.45 µM; with HFL1 (setting [3]) it was 0.69 µM; with PC14 (setting [4]), 0.68 µM; on SUV39H2 it was 0.0141 µM.
Consider `COc1cc(OC)c(-c2cn3ccc(OC4CCN(c5ccnc(N)n5)CC4)cc3n2)cc1Cl` [Example 284, 4-(4-((2-(5-chloro-2,4-dimethoxyphenyl)imidazo[1,2-a]pyridin-7-yl)oxy)-piperidin-1-yl)pyrimidin-2-amine], for which the half-inhibitory concentration (IC50) in the assay with A549 came out at 1.5 µM; in the assay with HCT-116 (setting [1]) it was 0.71 µM; with CCD-18Co (setting [2]), 1.3 µM; in the assay with HFL1 (setting [3]), 1.1 µM; with PC14 (setting [4]), 0.98 µM; on SUV39H2, 0.0918 µM.
In the case of `COc1cc(OC)c(-c2cn3ccc(N4CCN(c5cnccn5)CC4)cc3n2)cc1Cl` [Example 285, 2-(5-chloro-2,4-dimethoxyphenyl)-7-(4-(pyrazin-2-yl)piperazin-1-yl)imidazo[1,2-a]pyridine], the IC50 in the assay on A549 was 0.72 µM; with HCT-116 (setting [1]) it was 0.67 µM; with CCD-18Co (setting [2]) it was 0.7 µM; in the assay on HFL1 (setting [3]), 0.69 µM; in the assay with PC14 (setting [4]) it was 0.7 µM; at SUV39H2 it was 0.00747 µM.
As to `COc1cc(OC)c(-c2cn3ccc(N4CCN(c5nccc(N)n5)CC4)cc3n2)cc1Cl` [Example 286, 2-(4-(2-(5-chloro-2,4-dimethoxyphenyl)imidazo[1,2-a]pyridin-7-yl)piperazin-1-yl)-pyrimidin-4-amine], the IC50 in the assay with A549 came out at 0.65 µM; in the assay with HCT-116 (setting [1]) it was 0.56 µM; in the assay with CCD-18Co (setting [2]) it was 0.71 µM; in the assay on HFL1 (setting [3]), 0.7 µM; in the assay on PC14 (setting [4]), 0.63 µM; at SUV39H2 it was 0.00881 µM.
Take `COc1cc(OC)c(-c2cn3ccc(N[C@H]4CC[C@H](Nc5ccccn5)CC4)cc3n2)cc1Cl` [Example 287, N^1-(2-(5-chloro-2,4-dimethoxyphenyl)imidazo[1,2-a]pyridin-7-yl)-N^4-(pyridin-2-yl)-trans-cyclohexane-1,4-diamine]: the IC50 was determined as 0.8 µM with A549; 0.91 µM in the assay with HCT-116 (setting [1]); 0.81 µM in the assay on CCD-18Co (setting [2]); 0.78 µM in the assay on HFL1 (setting [3]); 0.94 µM with PC14 (setting [4]); 0.0327 µM on SUV39H2.
For `COc1cc(OC)c(-c2cn3ccc(OC4CCN(S(=O)(=O)c5nccn5C)CC4)cc3n2)cc1Cl` [Example 288, 2-(5-chloro-2,4-dimethoxyphenyl)-7-((1-((1-methyl-1H-imidazol-2-yl)sulfonyl)piperidin-4-yl)oxy)imidazo[1,2-a]pyridine], the IC50 with A549 was 0.8 µM; with HCT-116 (setting [1]), 0.98 µM; with CCD-18Co (setting [2]) it was 1.5 µM; with HFL1 (setting [3]), 1.7 µM; with PC14 (setting [4]), 1.2 µM; on SUV39H2 it was 0.0928 µM.
With `COc1cc(OC)c(-c2cn3ccc(N[C@H]4CC[C@H](CN5CCN(S(C)(=O)=O)CC5)CC4)cc3n2)cc1Cl` [Example 289, 2-(5-chloro-2,4-dimethoxyphenyl)-trans-N-(4-((4-(methylsulfonyl)piperazin-1-yl)methyl)cyclohexyl)imidazo-[1,2-a]pyridin-7-amine], the IC50 in the assay with A549 amounted to 0.63 µM; in the assay with HCT-116 (setting [1]), 0.83 µM; with CCD-18Co (setting [2]) it was 0.72 µM; in the assay on HFL1 (setting [3]), 0.74 µM; with PC14 (setting [4]), 0.77 µM; on SUV39H2 it was 0.028 µM.
Take `COc1cc(OC)c(-c2nc3cc(N4CCN(C(=O)OC(C)(C)C)CC4)ccn3c2I)cc1Cl` [Example 290, tert-butyl 4-(2-(5-chloro-2,4-dimethoxyphenyl)-3-iodoimidazo[1,2-a]-pyridin-7-yl)piperazine-1-carboxylate]: the IC50 stood at 1.3 µM in the assay with A549; 1.3 µM in the assay on HCT-116 (setting [1]); 1.4 µM in the assay on CCD-18Co (setting [2]); 1.3 µM in the assay on HFL1 (setting [3]); 0.61 µM with PC14 (setting [4]); 0.00975 µM on SUV39H2.
As to `COc1cc(OC)c(-c2cn3ccc(N[C@H]4CC[C@H](NCc5ccccc5)CC4)cc3n2)cc1Cl` [Example 291, N^1-benzyl-N^4-(2-(5-chloro-2,4-dimethoxyphenyl)imidazo[1,2-a]pyridin-7-yl)-trans-cyclohexane-1,4-diamine], the 50% inhibitory concentration (IC50) worked out at 0.72 µM with A549; 0.67 µM in the assay on HCT-116 (setting [1]); 0.76 µM in the assay on CCD-18Co (setting [2]); 0.93 µM with HFL1 (setting [3]); 0.71 µM in the assay with PC14 (setting [4]); 0.041 µM at SUV39H2.

The values are drawn from patent US10508109B2 (priority 2015, dated 2019).
